Measured values as given in PubChem BioAssay AID2060497 (Molecular Pharmacology Branch, DTP, NCI, 2025).

Tested on: 317291-083-R-J1-PDC complex spheroids, viability
Experiment: Anticancer human tumor 317291-083-R-J1-PDC patient-derived soft tissue sarcoma cell line growth inhibition [GQUAD]
Conditions: for IC50: curve of first compound; for viability, T/C: stronger effect = lower value
Summary of the method: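 Tumor cells were grown as complex spheroids with HUVEC endothelial cells and mesenchymal stem cells as stroma. G-quadruplex stabilizers were combined with targeted agents over half-log dilutions from near the clinical Cmax, or from 10 microM.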

[1] = second compound 0.0316 µM, first compound 0.0316 µM
[2] = second compound 0.0316 µM, first compound 0.1 µM
[3] = second compound 0.0316 µM, first compound 0.316 µM
[4] = second compound 0.0316 µM, first compound 1 µM
[5] = second compound 0.0316 µM, first compound 3.16 µM
[6] = second compound 0.0316 µM, first compound 10 µM
[7] = second compound 0.1 µM, first compound 0.0316 µM
[8] = second compound 0.1 µM, first compound 0.1 µM
[9] = second compound 0.1 µM, first compound 0.316 µM
[10] = second compound 0.1 µM, first compound 1 µM
[11] = second compound 0.1 µM, first compound 3.16 µM
[12] = second compound 0.1 µM, first compound 10 µM
[13] = second compound 0.316 µM, first compound 0.0316 µM
[14] = second compound 0.316 µM, first compound 0.1 µM
[15] = second compound 0.316 µM, first compound 0.316 µM
[16] = second compound 0.316 µM, first compound 1 µM
[17] = second compound 0.316 µM, first compound 3.16 µM
[18] = second compound 0.316 µM, first compound 10 µM
[19] = second compound 1 µM, first compound 0.0316 µM
[20] = second compound 1 µM, first compound 0.1 µM
[21] = second compound 1 µM, first compound 0.316 µM
[22] = second compound 1 µM, first compound 1 µM
[23] = second compound 1 µM, first compound 3.16 µM
[24] = second compound 1 µM, first compound 10 µM
[25] = second compound 3.16 µM, first compound 0.0316 µM
[26] = second compound 3.16 µM, first compound 0.1 µM
[27] = second compound 3.16 µM, first compound 0.316 µM
[28] = second compound 3.16 µM, first compound 1 µM
[29] = second compound 3.16 µM, first compound 3.16 µM
[30] = second compound 3.16 µM, first compound 10 µM
[31] = second compound 10 µM, first compound 0.0316 µM
[32] = second compound 10 µM, first compound 0.1 µM
[33] = second compound 10 µM, first compound 0.316 µM
[34] = second compound 10 µM, first compound 1 µM
[35] = second compound 10 µM, first compound 3.16 µM
[36] = second compound 10 µM, first compound 10 µM
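Further: spheroids exposed to compounds for one week before readout.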
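Wherever viability, T/C is given: percent viability relative to DMSO vehicle wells taken as 100%.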

## C#Cc1c(F)ccc2cc(O)cc(-c3ncc4c(N5CC6CCC(C5)N6)nc(OCC56CCCN5CC(F)C6)nc4c3F)c12 (stereo unspecified) + CN(C)c1ccc(Nc2c3ccc(NC(=O)CCN4CCCC4)cc3nc3cc(NC(=O)CCN4CCCC4)ccc23)cc1
Second compound 0.0316 µM
  IC50: 5660 nM
Second compound 0.1 µM
  IC50: 5140 nM
Second compound 0.316 µM
  IC50: 1010 nM
Second compound 1 µM
  IC50: < 31.6 nM
Second compound 3.16 µM
  IC50: < 31.6 nM
Second compound 10 µM
  IC50: < 31.6 nM
[1]
  viability, T/C: 111%
[2]
  viability, T/C: 90.8%
[3]
  viability, T/C: 106%
[4]
  viability, T/C: 107%
[5]
  viability, T/C: 68%
[6]
  viability, T/C: 32.4%
[7]
  viability, T/C: 91.3%
[8]
  viability, T/C: 98.9%
[9]
  viability, T/C: 89.5%
[10]
  viability, T/C: 86.2%
[11]
  viability, T/C: 64.8%
[12]
  viability, T/C: 29.6%
[13]
  viability, T/C: 72.7%
[14]
  viability, T/C: 74.4%
[15]
  viability, T/C: 62.9%
[16]
  viability, T/C: 49.9%
[17]
  viability, T/C: 47.9%
[18]
  viability, T/C: 42.1%
[19]
  viability, T/C: 46.9%
[20]
  viability, T/C: 35%
[21]
  viability, T/C: 27.5%
[22]
  viability, T/C: 19.7%
[23]
  viability, T/C: 17.1%
[24]
  viability, T/C: 0.42%
[25]
  viability, T/C: 5.12%
[26]
  viability, T/C: 2.52%
[27]
  viability, T/C: 4.56%
[28]
  viability, T/C: 2.64%
[29]
  viability, T/C: 1.07%
[30]
  viability, T/C: 0.36%
[31]
  viability, T/C: 0.32%
[32]
  viability, T/C: 0.73%
[33]
  viability, T/C: 0.29%
[34]
  viability, T/C: 0.39%
[35]
  viability, T/C: 0.24%
[36]
  viability, T/C: 0.39%

## C=CCn1c(=O)c2cnc(Nc3ccc(N4CCN(C)CC4)cc3)nc2n1-c1cccc(C(C)(C)O)n1 + CN(C)c1ccc(Nc2c3ccc(NC(=O)CCN4CCCC4)cc3nc3cc(NC(=O)CCN4CCCC4)ccc23)cc1
Second compound 0.0316 µM
  IC50: 147 nM
Second compound 0.1 µM
  IC50: 110 nM
Second compound 0.316 µM
  IC50: 34.6 nM
Second compound 1 µM
  IC50: < 31.6 nM
Second compound 3.16 µM
  IC50: < 31.6 nM
Second compound 10 µM
  IC50: < 31.6 nM
[1]
  viability, T/C: 87.1%
[2]
  viability, T/C: 64.3%
[3]
  viability, T/C: 21.7%
[4]
  viability, T/C: 14.2%
[5]
  viability, T/C: 8.78%
[6]
  viability, T/C: 8.84%
[7]
  viability, T/C: 82.5%
[8]
  viability, T/C: 52%
[9]
  viability, T/C: 25.7%
[10]
  viability, T/C: 12.4%
[11]
  viability, T/C: 9.4%
[12]
  viability, T/C: 8.71%
[13]
  viability, T/C: 51.3%
[14]
  viability, T/C: 34.4%
[15]
  viability, T/C: 14.4%
[16]
  viability, T/C: 7.47%
[17]
  viability, T/C: 7.01%
[18]
  viability, T/C: 5.2%
[19]
  viability, T/C: 31.1%
[20]
  viability, T/C: 14.4%
[21]
  viability, T/C: 8.51%
[22]
  viability, T/C: 2.77%
[23]
  viability, T/C: 1.74%
[24]
  viability, T/C: 1.3%
[25]
  viability, T/C: 2.02%
[26]
  viability, T/C: 1.03%
[27]
  viability, T/C: 0.41%
[28]
  viability, T/C: 3.62%
[29]
  viability, T/C: 0.31%
[30]
  viability, T/C: 0.14%
[31]
  viability, T/C: 0.27%
[32]
  viability, T/C: 0.13%
[33]
  viability, T/C: 0.18%
[34]
  viability, T/C: 0.15%
[35]
  viability, T/C: 0.21%
[36]
  viability, T/C: 0.15%

## CC(=O)O[C@H]1C(=O)[C@@]2(C)[C@H]([C@H](OC(=O)c3ccccc3)[C@]3(O)C[C@H](OC(=O)[C@H](O)[C@@H](NC(=O)c4ccccc4)c4ccccc4)C(C)=C1C3(C)C)[C@]1(OC(C)=O)CO[C@@H]1C[C@@H]2O + CN(C)c1ccc(Nc2c3ccc(NC(=O)CCN4CCCC4)cc3nc3cc(NC(=O)CCN4CCCC4)ccc23)cc1
Second compound 0.0316 µM
  IC50: < 31.6 nM
Second compound 0.1 µM
  IC50: < 31.6 nM
Second compound 0.316 µM
  IC50: < 31.6 nM
Second compound 1 µM
  IC50: < 31.6 nM
Second compound 3.16 µM
  IC50: < 31.6 nM
Second compound 10 µM
  IC50: < 31.6 nM
[1]
  viability, T/C: 46.5%
[2]
  viability, T/C: 17%
[3]
  viability, T/C: 12.4%
[4]
  viability, T/C: 14.7%
[5]
  viability, T/C: 11.4%
[6]
  viability, T/C: 12.4%
[7]
  viability, T/C: 39.5%
[8]
  viability, T/C: 13.6%
[9]
  viability, T/C: 12.5%
[10]
  viability, T/C: 12.2%
[11]
  viability, T/C: 10.4%
[12]
  viability, T/C: 10.6%
[13]
  viability, T/C: 25.9%
[14]
  viability, T/C: 14%
[15]
  viability, T/C: 9.98%
[16]
  viability, T/C: 8.69%
[17]
  viability, T/C: 10.2%
[18]
  viability, T/C: 9.42%
[19]
  viability, T/C: 21.7%
[20]
  viability, T/C: 6.55%
[21]
  viability, T/C: 5.24%
[22]
  viability, T/C: 7.99%
[23]
  viability, T/C: 6.09%
[24]
  viability, T/C: 6.28%
[25]
  viability, T/C: 9.14%
[26]
  viability, T/C: 0.56%
[27]
  viability, T/C: 0.37%
[28]
  viability, T/C: 0.6%
[29]
  viability, T/C: 1.62%
[30]
  viability, T/C: 0.92%
[31]
  viability, T/C: 0.91%
[32]
  viability, T/C: 0.27%
[33]
  viability, T/C: 0.18%
[34]
  viability, T/C: 0.29%
[35]
  viability, T/C: 0.25%
[36]
  viability, T/C: 0.23%
